Values of other authors as cited in patent US9631212B2, “Gene cluster for biosynthesis of cornexistin and hydroxycornexistin” (BASF SE, priority 2012, dated 2017).
Where two headings read alike, the source gives them in different places.

Key:
[1] = in vivo
[2] = tested on: corn plants

Row | SMILES | activity as a herbicide [1] | activity towards corn plants [2] | activity as a herbicide ([1]; listed as Cornexistin) | activity towards corn plants ([2]; listed as Cornexistin)
1 | CCC[C@H]1C2=C(C/C(=C/CO)[C@@H](O)CC(=O)[C@H]1O)C(=O)OC2=O [hydroxycornexistin] | highly potent herbicides | harmless to corn plants |  | 
2 | C/C=C1/CC2=C(C(=O)OC2=O)[C@H](CCC)[C@H](O)C(=O)C[C@@H]1O [cornexistin] | highly potent herbicides | harmless to corn plants | good activity as a herbicide | relative inactivity towards corn plants
